# Measured values taken from patent US10894807B2 (Siemens Medical Solutions USA, Inc., priority 2011, dated 2021).
# Target: human PSMA (Homo sapiens (Human), UniProt Q04609)
# Assay: Enzymatic assay for in vitro evaluation of PSMA inhibitors (fluorescent assay of PSMA activity, NAAG substrate, OPA detection of glutamate)
# Format: biochemical
# Chain of human PSMA (Q04609 whole entry): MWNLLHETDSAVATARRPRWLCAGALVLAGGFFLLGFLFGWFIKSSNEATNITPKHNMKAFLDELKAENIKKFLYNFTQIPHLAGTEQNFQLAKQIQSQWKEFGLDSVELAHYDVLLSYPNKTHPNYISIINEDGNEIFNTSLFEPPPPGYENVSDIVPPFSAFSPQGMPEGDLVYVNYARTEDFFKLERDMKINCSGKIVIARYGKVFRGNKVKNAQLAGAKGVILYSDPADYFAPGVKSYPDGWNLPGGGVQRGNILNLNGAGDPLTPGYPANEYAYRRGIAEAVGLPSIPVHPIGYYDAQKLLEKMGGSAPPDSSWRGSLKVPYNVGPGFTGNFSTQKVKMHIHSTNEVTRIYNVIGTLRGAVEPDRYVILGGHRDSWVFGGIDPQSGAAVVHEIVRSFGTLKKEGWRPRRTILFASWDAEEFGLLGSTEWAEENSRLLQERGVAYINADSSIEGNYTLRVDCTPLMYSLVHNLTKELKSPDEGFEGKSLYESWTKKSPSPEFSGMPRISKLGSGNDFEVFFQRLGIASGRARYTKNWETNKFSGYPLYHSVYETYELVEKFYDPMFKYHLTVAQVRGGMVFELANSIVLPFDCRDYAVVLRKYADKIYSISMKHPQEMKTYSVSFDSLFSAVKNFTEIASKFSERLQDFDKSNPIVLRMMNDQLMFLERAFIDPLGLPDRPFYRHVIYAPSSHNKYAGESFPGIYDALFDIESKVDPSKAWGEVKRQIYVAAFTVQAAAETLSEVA
SMILES,PSMA Blkg % (10 μM) (compound at 10 μM),also measured
"CN(CCCC[C@H](NC(=O)N[C@@H](CCC(=O)O)C(=O)O)C(=O)O)C(=O)OCc1ccccc1 [P083, (9S,13S)-4-Methyl-3,11-dioxo-1-phenyl-2-oxa-4,10,12-triazapentadecane-9,13,15-tricarboxylic Acid]",100%,
"O=C(O)CC[C@H](NC(=O)N[C@@H](CCCCNc1nc(-c2ccc(-n3cc(CCCF)nn3)cc2)cs1)C(=O)O)C(=O)O [P218, (S)-2-(3-((S)-1-Carboxy-5-((4-(4-(4-(3-fluoropropyl)-1H-1,2,3-triazol-1-yl)phenyl)thiazol-2-yl)amino)pentyl)ureido)pentanedioic Acid]",,Ki: 0.6 nM; PSMA Blkg % (10 μM): 98%
"O=C(O)CC[C@H](NC(=O)N[C@@H](Cc1ccc(NC(=O)c2cc(C(=O)O)cc(-n3cc(CCCF)nn3)c2)cc1)C(=O)O)C(=O)O [P253, (S)-2-(3-((S)-1-Carboxy-2-(4-(3-carboxy-5-(4-(3-fluoropropyl)-1H-1,2,3-triazol-1-yl)benzamido)phenyl)ethyl)ureido)pentanedioic Acid]",,Ki: 0.2 nM; PSMA Blkg % (1.0 μM): 96%
"NNC(=O)N[C@@H](CCC(=O)O)C(=O)O [P061, (S)-2-(Hydrazinecarboxamido)pentanedioic Acid]",0%,
"O=C(O)CCC(NS(=O)(=O)N[C@@H](CCC(=O)O)C(=O)O)C(=O)O (stereo partly drawn) [P099, (2S)-2,2′-(Sulfonylbis(azanediyl))dipentanedioic Acid]",0%,
"CN(C(=O)N[C@@H](CCC(=O)O)C(=O)O)[C@@H](Cc1ccc(NC(=O)CCCN=[N+]=[N-])cc1)C(=O)O [P063, (S)-2-(3-((S)-2-(4-(4-Azidobutaneamido)phenyl)-1-carboxyethyl)-3-methylureido)-pentanedioic Acid]",30%,
O=C(O)CC[C@H](NC(=O)C[C@H](NC(=O)CCCc1ccc(-n2cc(CCCF)nn2)cc1)C(=O)O)C(=O)O [P115],36%,
"O=C(O)CC[C@H](NC(=O)CN(O)C(=O)CCCc1ccc(-n2cc(CCCF)nn2)cc1)C(=O)O [P090, (S)-2-(2-(4-(4-(4-(3-Fluoropropyl)-1H-1,2,3-triazol-1-yl)phenyl)-N-hydroxybutanamido)acetamido)pentanedioic Acid]",85%,Ki: 313 nM
"O=C(O)CC[C@H](NC(=O)C[C@@H](NC(=O)NCCc1ccccc1)C(=O)O)C(=O)O [P214, (S)-2-((R)-3-Carboxy-3-(3-phenethylureido)propanamido)pentanedioic Acid]",,PSMA Blkg % (10 μM): 34%
"CCC1(CC)C(=O)N([C@@H](CCCCNC(=O)c2ccc(F)nc2)C(=O)O)C(=O)N([C@@H](CCC(=O)O)C(=O)O)C1=O [P113, (S)-2-(3-((S)-1-Carboxy-5-(6-fluoronicotinamido)pentyl)-5,5-diethyl-2,4,6-trioxotetrahydropyrimidin-1(2H)-yl)pentanedioic Acid]",11%,
"O=C(O)CCC(NC(=O)N1CC(NC(=O)CCCCn2cc(CCCF)nn2)C[C@H]1C(=O)O)C(=O)O (stereo partly drawn) [P081, 2-((2S)-2-Carboxy-4-(5-(4-(3-fluoropropyl)-1H-1,2,3-triazol-1-yl)pentanamido)pyrrolidine-1-carboxamido)pentanedioic Acid]",25%,
"O=C(O)CC[C@H](NC(=O)NC(Cc1ccc(NC(=O)N2CCN(C(=O)c3cc(C(=O)N4CCN(C(=O)Nc5ccc(CC(NC(=O)N[C@@H](CCC(=O)O)C(=O)O)C(=O)O)cc5)CC4)cc(-n4cc(CCCF)nn4)c3)CC2)cc1)C(=O)O)C(=O)O (stereo in doubt) [P275, (2S,2′S)-2,2′-(((((1S,1′S)-(((4,4′-(5-(4-(3-Fluoropropyl)-1H-1,2,3-triazol-1-yl)isophthaloyl)bis(piperazine-1,1′-carbonyl))bis(azanediyl))bis(4,1-phenylene))bis(1-carboxyethane-2,1-diyl))bis(azanediyl))bis(carbonyl))bis(azanediyl))dipentanedioic Acid]",,Ki: 6.6 nM
"O=C(O)CC[C@H](NC(=O)NC(Cc1ccc(OCCn2cc(CCCF)nn2)cc1)C(=O)O)C(=O)O (stereo partly drawn) [P202, (2S)-2-(3-(1-Carboxy-2-(4-(2-(4-(3-fluoropropyl)-1H-1,2,3-triazol-1-yl)ethoxy)phenyl)ethyl)ureido)pentanedioic Acid]",,Ki: 94 nM; PSMA Blkg % (10 μM): 97%
"Cc1nc(N[C@@H](CCC(=O)O)C(=O)O)sc1C(=O)O [P087, (S)-2-((5-Carboxy-4-methylthiazol-2-yl)amino)pentanedioic Acid]",3%,
"O=C(O)CN(CC(=O)O)CC(=O)N[C@H](CSCc1ccccc1)C(=O)O [P028, (S)-2,2′-((2-((2-(Benzylthio)-1-carboxyethyl)amino)-2-oxoethyl)azanediyl)diacetic Acid]",24%,
"O=C(O)CC[C@H](NC(=O)N[C@@H](CCCCNC(=O)N1CCN(C(=O)c2ccc(-n3cc(CCCF)nn3)cc2)CC1)C(=O)O)C(=O)O (stereo in doubt) [P249, (S)-2-(3-((S)-1-Carboxy-5-(4-(4-(4-(3-fluoropropyl)-1H-1,2,3-triazol-1-yl)benzoyl)-piperizine-1-carboxamido)pentyl)ureido)pentanedioic Acid]",,Ki: 9.4 nM
"O=C(O)CC[C@H](NC(=O)N[C@@H](CCCCNC(=O)Cn1cc(CCCF)nn1)C(=O)O)C(=O)O [P005, (S)-2-(3-((S)-1-Carboxy-5-(2-(4-(3-fluoropropyl)-1H-1,2,3-triazol-1-yl)acetamido)pentyl)ureido)pentanedioic Acid]",89%,Ki: 40.7 nM
"CN(C(=O)[C@H](CC(=O)O)NC(=O)c1ccc(-n2cc(CCCF)nn2)cc1)[C@@H](CCC(=O)O)C(=O)O [P159, (S)-2-((S)-3-Carboxy-2-(4-(4-(3-fluoropropyl)-1H-1,2,3-triazol-1-yl)benzamido)-N-methylpropanamido)pentanedioic Acid]",39%,
"O=C(O)CCC(CP(=O)(O)OCCC1CCN(C(=O)c2ccc(-n3cc(CCCF)nn3)cc2)CC1)C(=O)O (centres unmarked) [P227, 2-(((2-(1-(4-(4-(3-Fluoropropyl)-1H-1,2,3-triazol-1-yl)benzoyl)piperidin-4-yl)ethoxy)(hydroxy)phosphoryl)methyl)pentanedioic Acid]",,PSMA Blkg % (1.0 μM): 15%
"O=C(O)CC[C@@H](C(=O)O)N1C(=O)CC(=O)N([C@@H](CCCCNC(=O)Cn2cc(CCCF)nn2)C(=O)O)C1=O [P074, (S)-2-(3-((S)-1-Carboxy-5-(2-(4-(3-fluoropropyl)-1H-1,2,3-triazol-1-yl)acetamido)pentyl)-2,4,6-trioxotetrahydropyrimidin-1(2H)-yl)pentanedioic Acid]",10%,
"C[C@H](NC(=O)CCCN=[N+]=[N-])C(=O)N[C@@H](CCC(=O)O)C(=O)O [P031, (S)-2-((S)-2-(4-Azidobutanamido)propanamido)pentanedioic Acid]",19%,
"O=C(O)CCC(NC(=O)N[C@@H](CCCCNC(=O)CCC(CCC(=O)NCCCC[C@H](NC(=O)NC(CCC(=O)O)C(=O)O)C(=O)O)(CCC(=O)NCCCC[C@H](NC(=O)NC(CCC(=O)O)C(=O)O)C(=O)O)NC(=O)c1ccc(-n2cc(CCCF)nn2)cc1)C(=O)O)C(=O)O (stereo partly drawn) [P287, (3S,7S,25S,29S)-16-(3-(((S)-5-Carboxy-5-(3-((S)-1,3-dicarboxypropyl)ureido)pentyl)amino)-3-oxopropyl)-16-(4-(4-(3-fluoropropyl)-1H-1,2,3-triazol-1-yl)benzamido)-5,13,19,27-tetraoxo-4,6,12,20,26,28-hexaazahentriacontane-1,3,7,25,29,31-hexacarboxylic Acid]",,Ki: 1 nM; PSMA Blkg % (1.0 μM): 95%
"CCN(CC)C(=O)c1cc(C(=O)N2CCN(C(=O)NCCCC[C@H](NC(=O)N[C@@H](CCC(=O)O)C(=O)O)C(=O)O)CC2)cc(-n2cc(CCCF)nn2)c1 [P264, (S)-2-(3-((S)-1-Carboxy-5-(4-(3-(diethylcarbamoyl)-5-(4-(3-fluoropropyl)-1H-1,2,3-triazol-1-yl)benzoyl)piperazine-1-carboxamido)pentyl)ureido)pentanedioic Acid]",,PSMA Blkg % (1.0 μM): 96%
O=C(O)CC[C@@H](C(=O)O)N1C(=O)CC(=O)NC1=O [P126],12%,
"O=C(O)CC[C@H](NC(=O)CN(O)C(=O)CCc1ccc(-n2cc(CCCF)nn2)cc1)C(=O)O [P144, (S)-2-(2-(3-(4-(4-(3-Fluoropropyl)-1H-1,2,3-triazol-1-yl)phenyl)-N-hydroxypropanamido)acetamido)pentanedioic Acid]",7%,
"O=C(O)CC[C@H](NC(=O)CN(O)C(=O)CCCNC(=O)c1ccc(-n2cc(CCCF)nn2)cc1)C(=O)O [P141, (S)-2-(2-(4-(4-(4-(3-Fluoropropyl)-1H-1,2,3-triazol-1-yl)benzamido)-N-hydroxybutanamido)acetamido)pentanedioic Acid]",1%,
"O=C(O)CC[C@@H](C(=O)O)N1C(=O)/C(=C(/O)Cn2cc(CCCF)nn2)C(=O)N(Cc2ccccc2)C1=O [P096, (S,E)-2-(3-Benzyl-5-(2-(4-(3-fluoropropyl)-1H-1,2,3-triazol-1-yl)-1-hydroxyethylidene)-2,4,6-trioxotetrahydropyrimidin-1(2H)-yl)pentanedioic Acid]",3%,
"O=C(O)CC[C@H](NC(=O)N[C@@H](CCCCNc1ccc([N+](=O)[O-])c(F)n1)C(=O)O)C(=O)O [P269, (S)-2-(3-((S)-1-Carboxy-5-((6-fluoro-5-nitropyridin-2-yl)amino)pentyl)ureido)pentanedioic Acid]",,PSMA Blkg % (1.0 μM): 66%
"Cn1c(=O)n([C@@H](CCCCNC(=O)OCc2ccccc2)C(=O)O)c(=O)n([C@@H](CCC(=O)O)C(=O)O)c1=O [P085, (S)-2-(3-((S)-5-(Benzyloxycarbonylamino)-1-carboxypentyl)-5-methyl-2,4,6-trioxo-1,3,5-triazinan-1-yl)pentanedioic Acid]",0%,
